Patent publication US9951039B2, “Pyrimidines for treatment of bacterial infections” (The Hong Kong Polytechnic University, priority 2016, dated 2018)
≈ marks a conversion by molar mass, not a printed value.

How the values were obtained:
[1] = system: USA300 #1799 (community-associated MRSA); test: MIC against clinically isolated strain 8; type: cell-based, S. aureus; details: Staphylococcus aureus
Description: (§1) Procedure of Antimicrobial susceptibility test: The MIC value of compounds was measured in the antimicrobial susceptibility test using the broth microdilution procedure in accordance with the CLSI guidelines.^21 Cation-adjusted Mueller Hinton broth (CA-MHB) was used for all the S. aureus strains in the assay. Cells in exponential phase of growth were diluted to approximately 5×10^5 cfu/mL. Stock solutions of each compound were freshly dissolved in dimethyl sulfoxide (DMSO). Then, serial dilutions of each compound in CA-MHB medium were added into 96-well microplate. The final percentage of DMSO in the assay was 1%. Control experiments were performed with 1% DMSO instead of the compound solution. After being incubated at 37° C. for 18 h, OD600 value of cells was measured on a microplate reader and the percentage of bacterial cell inhibition with respect to controls was calculated. The MIC value was defined as the lowest compound concentration at which the growth of bacteria was inhibited by ≥90%. Three independent assays were performed for each compound.
(§2) Results: Three compounds, namely 14av_amine16, 14dv_amine16 and 14dv_amine06, were selected to be tested against nine in-house clinically isolated bacterial strains including S. aureus ATCC29247, which is an ampicillin resistant strain, S. aureus ATCC BAA-41, ATCC BAA-1717, ATCC BAA-1720, ATCC 43300 which are methicillin resistant strains and four USA300 strains, (#417, #757, #1799 and #2690), which are the predominant strain type of community-associated MRSA strains in the United States.

[2] = system: S. aureus ATCC BAA-1717 (methicillin resistant); test: MIC against clinically isolated strain 2; type: cell-based; details: Staphylococcus aureus, ATCCBAA1717
Description: as §1, §2

[3] = system: USA300 #757 (community-associated MRSA); test: MIC against clinically isolated strain 7; type: cell-based, S. aureus; details: Staphylococcus aureus
Description: as §1, §2

[4] = system: USA300 #2690 (community-associated MRSA); test: MIC against clinically isolated strain 9; type: cell-based, S. aureus; details: Staphylococcus aureus
Description: as §1, §2

[5] = system: S. aureus ATCC BAA-41 (methicillin resistant); test: MIC against clinically isolated strain 4; type: cell-based; details: Staphylococcus aureus, ATCCBAA41
Description: as §1, §2

[6] = system: USA300 #417 (community-associated MRSA); test: MIC against clinically isolated strain 6; type: cell-based, S. aureus; details: Staphylococcus aureus
Description: as §1, §2

[7] = system: S. aureus ATCC BAA-1720 (methicillin resistant); test: MIC against clinically isolated strain 3; type: cell-based; details: Staphylococcus aureus, ATCCBAA1720
Description: as §1, §2

[8] = system: S. aureus ATCC 43300 (methicillin resistant); test: MIC against clinically isolated strain 5; type: cell-based; details: Staphylococcus aureus, ATCC43300
Description: as §1, §2

[9] = system: clinically isolated S. aureus strains; test: MIC against the nine clinically isolated S. aureus strains; type: cell-based; details: Staphylococcus aureus; most of the MRSA strains
Description: as §1, with “compound. […]” for “compound.”

COc1cccc(OC)c1C(=O)N[C@@H]1C(=O)N2[C@@H]1SC(C)(C)[C@@H]2C(=O)O [Methicillin, reference compound]
MIC [1]: 30 µM (≈ 11.4 µg/mL)
MIC [2]: > 30 µM
MIC [3]: 30 µM (≈ 11.4 µg/mL)
MIC [4]: 15 µM (≈ 5.71 µg/mL)
MIC [5]: > 30 µM
MIC [6]: > 30 µM
MIC [7]: > 30 µM
MIC [8]: > 30 µM
MIC [9]: > 30 µM
